Laboratory results published in patent US8545834B2, “G-substrate for the treatment and prevention of parkinson's disease” (The McLean Hospital Corporation, priority 2007, dated 2013).

Key:
PP2A = PP2A activity assay (immunoprecipitated PP2A, phosphopeptide, Malachite Green); assay type: cell-based, human
Experimental: PP2A activity was measured in control BE(2)-M17 cells at various incubation times (t=0, 1, 2, 5 and 8 hr) after exposure to 50 μM 6-OHDA. […] Control, wild-type, and T123A G-substrate-expressing cells were then exposed to 50 μM 6-OHDA for 2 hours before measurement of PP2A activity.
PP2A activity was measured using a non-radioactive kit according to the manufacturer's instruction (Upstate Biotechnologies, Lake Placid, N.Y.). After 50 μM 6-OHDA exposure with various times, cells were harvested in 20 mM imidazole-HCl, 2 mM EDTA, 2 mM EGTA, pH7 with a protease inhibitor cocktail (Sigma). Protein concentrations of the lysates were measured using BCA assay (Pierce) and 500 μg of protein was immunoprecipitated using an anti-PP2A catalytic subunit antibody and protein A-Sepharose beads. Immunoprecipitated PP2A was then incubated with phosphopeptide (K-R-pT-I-R-R (SEQ ID NO: 8)) for 10 min at 37° C. Dephosphorylation of the phosphopeptide was assayed spectrophotometrically at 650 nm using Malachite Green.

A9 DA neurons = assay type: in vivo, rat; conditions: rats, intra-striatal 6-OHDA
Description: Retrograde 6-OHDA lesioning within the striatum is a well-established method of creating progressive degeneration of A9 DA neurons. The loss of TH immunoreactivity reflects actual loss of DA neurons (Sauer, 1994).
The in vivo neuroprotective effects of G-substrate against 6-OHDA-induced toxicity was examined by injecting 6-OHDA into the corpus striatum of rats which previously had either G-substrate or control genes (empty vector or YFP) delivered to the midbrain using the lentivirus as described above. 6-OHDA induced approximately an 80% loss of TH-positive neurons in the midbrain (FIG. 12Q) and complete loss of TH immunoreactivity in the striatum (data not shown). The severity of the striatal insult in this paradigm precluded our ability to usefully measure protection of striatal nerve terminals. […] Furthermore, most of the surviving TH-positive neurons in lenti G-substrate-transduced rats were strongly G-substrate-positive (FIGS. 12G-12L).
Rats received two 2.75 μl stereotaxic injections of either lenti-empty vector+lenti-eGFP (n=19), lenti-G substrate+lenti-eGFP (n=19), or lenti-YFP (n=14) and delivered at a rate of 0.2 μl/min using microinfusion pumps (Stoelting Co, Wood Dale, Ill.) with 10 min wait times after each injection. Lenti-eGFP was added to each condition, excluding the YFP condition, to serve as an exogenous marker for surgical targeting (0.5 μl of the total 5.5 μl A volume). SN injection coordinates were as follows: site 1: AP −4.8, ML −2.0, DV −7.2; site 2: AP −5.5, ML −1.8, DV −7.2; and tooth bar set at −3.3. Virus titers (p24) were as follows: G substrate, 60 ng/μl; empty vector, 60 ng/μl; eGFP, 83 ng/μl; and YFP, 60 ng/μl.
Two weeks following lentiviral injection, animals (lenti-empty vector+lenti-eGFP (n=9), lenti-G substrate+lenti-eGFP (n=9), or lenti-YFP (n=14)) received three 2.5 μl stereotaxic injections of 3.0 μg/μl 6-OHDA (total dose=22.5 μg 6-OHDA) delivered at a rate of 0.5 μl/min and 5 min wait times after each injection. Striatum injection coordinates were as follows: site 1: AP +1.3, ML −2.8, DV −4.5; site 2: AP +0.2, ML, −3.0, DV −5.0; site 3: AP −0.6, ML −4.0, DV −5.5; and tooth bar set at −3.3. The lesion was allowed to progress for 3 weeks after which animals were sacrificed for post mortem analyses.
Brains were cut frozen in the coronal plane at a thickness of 40 μm on a sliding microtome and six series of sections were stored in cryoprotectant. Two full series of sections were processed for visualization of tyrosine hydroxylase (TH) via the biotin-labeled antibody procedure. Briefly, following several washes in a PBS solution containing 0.01% Triton X-100 (PBS-T), endogenous peroxidase was quenched in a 3% hydrogen peroxide solution and background staining was then inhibited in a 5% normal goat serum solution. […]

BE(2)-M17 cells = experiment: In vitro protection assays (MTS cell viability, LDH release) against neurotoxins; assay type: cell-based, human; conditions: for protection against 50 μM 6-OHDA exposure by PP2A inhibition (MTS cellular viability): BE(2)-M17 cells without elevated G-substrate, normalized to control
Experimental: Viability of the M17 cells was assessed following exposure to a variety of neurotoxins, each representing different aspects of PD pathology. 6-hydroxydopamine (6-OHDA) causes oxidative stress. MG-132 induces proteasome inhibition. And, MPP+ causes mitochondrial dysfunction by inhibiting Complex I. Cytotoxicity of M17 cells was determined using both cell viability assays and LDH release. G-substrate overexpression in M17 cells was confirmed by Western blot analysis (FIG. 3A) and by immunocytochemistry (FIG. 3B).
BE(2)-M17 cells were transduced with lentivirus expressing control or G-substrate with a multiplicity of infection 15. Cells were grown in Optimem™ (Invitrogen, Carlsbad, Calif.) supplemented with 10% heat-inactivated fetal calf serum (Hyclone, Logan, Utah), nonessential amino acid and sodium pyruvate. Cells were maintained at 37° C., in 5% CO2 humid atmosphere. For the bioassay, cells were plated in 96 well plates at 5000 per well. The next day, cells were treated with various concentrations of 6-OHDA (Sigma), MG-132 (Calbiochem) and MPP+ (Sigma) for 20 hrs. The supernatant was used to determine cytotoxicity using LDH release assay kit (Roche, Indianapolis, Ind.) and the cells remaining on the plate was used to determine cell viability using MTS based solution, CellTiter 96 AQueous One™ solution cell proliferation assay (Promega, Madison, Wis.).
Three different siRNAs for human G-substrate as described herein, a negative control siRNA, and a validated Akt siRNA (Ambion; Austin, Tex.) were used. Cells were plated in 96 well plates at 5000 per well with siRNAs and siPORT NeoFX transfection agent (Ambion, Austin, Tex.). After 48 hrs of incubation with siRNAs, each of the toxicants (6-OHDA, MG-132 or MPP+) were applied to the cells. Cell viability and cytotoxicity was measured after 20 hrs of toxin exposure.

VMAT2 = experiment: Western blot of VMAT2 expression in M17 cells; assay type: cell-based, human; conditions: naïve M17 cells
Description: BE(2)-M17 cells were used to investigate the interaction between G-substrate and α-synuclein, a known risk factor and possible causative agent in Parkinson's disease. […] Likewise, VMAT2 expression was reduced in naïve M17 cells following the reduction in endogenous G-substrate using siRNA (FIG. 10C).
M17 cells transiently and stably overexpression α-synuclein were transfected using the G-substrate lentiviral vector described above.
The PP2A regulation of VMAT 2 was investigated in M17 cells. PP2A levels were reduced using RNAi. […] The effect of PP2A inhibition was not generalized to other dopaminergic markers tested.
Cells and tissue samples were collected from and suspended in lysis buffer containing: 50 mM Tris-HCl, 0.15 M NaCl, 0.32 M sucrose, 1.0 mM EDTA, and 1% NP-40. In addition, phosphatase inhibitors I and II (1:100) and protease inhibitors (1:100) were added fresh prior to cell lysis (Sigma-Aldrich, P2850, P5276, and P8340 respectively). Following cell lysis, the homogenate was centrifuged, a portion of the supernatant was reserved for protein determination (BCA Assay, Pierce, Rockford, Ill.) and the remaining was stored at −20° C. 20 μg (in vitro cell preps) and 50 μg (tissue dissections) of solubilized protein were mixed 1:1 with sample buffer and boiled for 5 min. The samples and molecular weight standards were separated using the Criterion precast 10% SDS-polyacrylamide gel system (Bio-Rad, Hercules, Calif.). After electrophoresis, the proteins were electrically transferred to PVDF membranes at 100 V for 30 min. After transfer, blots were incubated in Tris-buffered saline with 0.1% Tween 20 (TBS-T) containing 5% BSA. Subsequently, blots were incubated with the following antibodies at 4° C. overnight (1:1000 unless otherwise stated): phospho-Akt (ser473), phospho-GSK3β (ser9), phospho-erk1/2, and phospho-p38 (Cell Signaling Technologies, Danvers, Mass.). HRP-conjugated secondary antibodies were then applied and immunoreactive bands were visualized with chemiluminescence (Amersham Biosciences, Arlington Heights, Ill.) and exposed onto film. Immunoblots were then stripped and re-probed for the expression of the total protein (Cell Signaling) and beta-actin (1:10 000) (Abcam) to serve as a loading control. Optical density analysis (NIH image) was used to determine the relative abundance of protein in each sample. The optical densities of the phospho epitopes were standardized to their respective total proteins and this value was used in the statistical analyses.

[1] = lentiviral overexpression in BE(2)-M17 cells, toxin 20 hrs, compared to control

`NCCc1cc(O)c(O)cc1O` [6-OHDA, 6-hydroxydopamine, reference compound] was tested, and the “PP2A activity compared to basal activity” value (PP2A; control BE(2)-M17 cells, 50 μM 6-OHDA, t=1, 2, 8 hr (all times except t=5 hr)) was “significantly increased”, the “loss of TH-positive neurons in the midbrain” value (A9 DA neurons; 3 weeks) was roughly 80% and the “loss of TH immunoreactivity in the striatum” value (A9 DA neurons; data not shown) was “complete loss”.
For `COC[C@@H]([C@H](O)[C@H](O)C(=O)NCC[C@H](C)c1nc(/C=C/C[C@@H]2O[C@]3(C[C@@H](O)[C@@H]2C)O[C@H]([C@H](C[C@H](O)[C@H](C)[C@H](O)[C@H](C)/C=C(C)/C(C)=C/C=C/C(C)=C\C#N)OC)[C@H](OP(=O)(O)O)C3(C)C)co1)N(C)C` [calyculin A, reference compound], the “protection against 50 μM 6-OHDA exposure by PP2A inhibition (MTS cellular viability)” value (BE(2)-M17 cells) was “none of these methods alone were protective” and the VMAT2 expression (VMAT2) was “increased VMAT2 levels”.
`C=C1[C@@H](O)[C@@H]2O[C@]3(CC[C@H](/C=C/[C@@H](C)[C@@H]4CC(C)=C[C@@]5(O[C@H](C[C@@](C)(O)C(=O)O)CC[C@H]5O)O4)O3)CC[C@H]2O[C@@H]1[C@@H](O)C[C@H](C)[C@H]1O[C@@]2(CCCCO2)CC[C@H]1C` [okadaic acid, reference compound] was tested, and the “protection against 50 μM 6-OHDA exposure by PP2A inhibition (MTS cellular viability)” value (BE(2)-M17 cells) was “none of these methods alone were protective” and the VMAT2 expression (VMAT2) was “increased VMAT2 levels”.
With “T123A mutant G-substrate: mutant G-substrate with Thr to Ala point mutation at Thr 123 (T119A of human), overexpressed from a lentiviral vector” the “protection against 6-OHDA and MG-132 compared to the wild-type” value (BE(2)-M17 cells; lentiviral overexpression in BE(2)-M17 cells) was “significantly less effective”, the “protection against MPP+-induced toxicity (cell viability, LDH release)” value (BE(2)-M17 cells; lentiviral overexpression in BE(2)-M17 cells, toxin 20 hrs) was “neither wild-type nor T123A mutant G-substrate overexpression was protective” and the “neuroprotection against 6-OHDA toxicity (cell viability, LDH release)” value (BE(2)-M17 cells; [1]) was “neuroprotective”. The “neuroprotection against MG-132 toxicity (cell viability, LDH release)” value (BE(2)-M17 cells; [1]) was “neuroprotective” and the “PP2A activity in G-substrate-expressing cells” value (PP2A; BE(2)-M17 cells exposed to 50 μM 6-OHDA for 2 hours, versus control cells) was “reduced compared to controls, but not reduced as much as observed in the wild-type G-substrate-expressing cells”.
